Reference: US5646155A, “Drugs to prevent recurrent herpes virus infections” (priority 1994, dated 1997)
In brackets after ≈: the same amount, converted by molar mass. Read-outs that look alike come from different tables or passages of the source.

What was measured:
[1] = Pharmacokinetics in mice following intraperitoneal administration (Table 3); assay type: in vivo; settings: mouse, ip
Protocol: Pharmacokinetic parameters of inhibitors in mice
following intraperitoneal (100 mg/Kg) administration (i.p.)
^1 Plasma concentrations were measured by analytical HPLC on a C8
reverse phase column as described in the experimental Section.

[2] = Solubility in water (Table 1); assay type: physicochemical; settings: read-out: Sol. in H2O
HSV1, strain McKrae = test: Reactivation in vitro of latent HSV1 strain McKrae from explanted mouse ganglia (Table 6); assay type: cell-based, mice; settings: 15 μM drugs, 7 days, supernatant added to Vero cells
Protocol: Screening of compounds is carried out using an in vitro explant cocultivation model in mice. Ocular HSV1 infections are initiated and, after subsidence of the infectious phase (several days), latent HSV1 infection becomes established in the trigeminal ganglia of the mice. The ganglia are then surgically removed and minced or homogenized, and this explanted tissue is cocultivated on mammalian cells, typically Vero cells. The frequency of reactivation is determined as the percentage of ganglia that produce HSV1 virus (as measured by viral cytopathic effect (CPE)) in the cultures. Effective drugs present during the cocultivation period will decrease the frequency of reactivation relative to untreated cocultures. See Leib et al. (J. Virol. 63:759-768 (1989)), incorporated herein by reference, and statements herein for further experimental details.
Latent ocular HSV1 infections were established in mice. Trigeminal gangli
were removed and treated as follows.
^2 Ganglia were minced and incubated for 7 days in the presence of 15
μM drugs; after homogenization, supernatant was added to Vero cells in
culture (courtesy of Dr. Y. J. Gordon, Eye and Ear Institute, Pittsburgh)

physchem = settings: octanol/water
[3] = Absorption and distribution in mice (Table 2); assay type: in vivo; settings: for Vd/F: i.p.; for half-life: plasma
Description: Absorption and distribution of 9-substituted-N^2 -phenylquanines in mice.
*i.v., intravenous; i.p., intraperitoneal.

HSV2 TK = HSV2 TK (Human herpesvirus 2, UniProt P04407); test: HSV2 thymidine kinase inhibition (Table 1); assay type: biochemical
Description: kinases (TK) from Herpes simplex virus types 1 and 2 (HSV1, HSV2).

HSV1 [4] = test: Hyperthermia-induced viral DNA synthesis in HSV1 latent mice, QCPCR (Table 5); assay type: in vivo; settings: 200 mg/kg, stressed (43° C. water 10 min), ganglionic DNA
Protocol: (§1) Table 5 provides quantitation of viral DNA using quantitative, competitive polymerase chain reaction methods.
(§2) .dagger-dbl.HSV1 latent mice were treated with HBPG (200 mg/kg), stressed
(§3) by immersion in 43° C. water for 10 min, and sacrificed 24 hours
ΔGanglionic DNA was amplified in quantitative, competitive
polymerase chain reaction (QCPCR) and the copy number of the viral gene
present determined at the equivalence point.

HSV1 [5] = test: Hyperthermia-induced HSV1 reactivation in mice, infectious virus (Table 4); assay type: in vivo; settings: for Infectious Virus, Ganglion / Infectious Virus, Ocular Surface: 200 mg/kg
Protocol: as §1, §2, §3
ΔGanglion homogenates and ocular surface swabs were cocultured on
indicator cells and the appearance of cytopathic effect recorded.

[6] = target: Varicella Zoster Virus (VZV) Thymidine Kinase (TK) (Varicella-zoster virus, UniProt P09250); test: VZV thymidine kinase inhibition (Table 7); assay type: biochemical
HSV1, strain KOS = settings: 150 μM drugs, cocultivated on Vero cells (from Leib et al.); cited from earlier work
HSV1 TK = HSV1 TK (Human herpesvirus 1, UniProt P0DTH5); test: biochemical
[7] = mouse, in vivo, ip, mice, in 90% DMSO/H2O, read-out: Volume of Distribution
[8] = mouse, ip, mice, in 90% DMSO/H2O
[9] = stressed (43° C. water 10 min), sacrificed 24 hours later
[10] = mouse, ip, pH 11.3, mice, in saline, pH 11.3

Chain of Varicella Zoster Virus (VZV) Thymidine Kinase (TK) (P09250 whole entry, looked up): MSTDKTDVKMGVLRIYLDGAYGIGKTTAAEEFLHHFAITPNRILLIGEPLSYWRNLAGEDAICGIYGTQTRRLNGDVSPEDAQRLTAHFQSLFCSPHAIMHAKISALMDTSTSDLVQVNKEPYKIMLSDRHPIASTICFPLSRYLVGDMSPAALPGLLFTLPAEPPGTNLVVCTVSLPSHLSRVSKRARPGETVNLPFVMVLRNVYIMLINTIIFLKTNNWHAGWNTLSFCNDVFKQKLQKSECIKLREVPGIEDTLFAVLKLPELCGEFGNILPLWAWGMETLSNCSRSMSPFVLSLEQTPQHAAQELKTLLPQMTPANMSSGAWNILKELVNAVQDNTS
Chain of HSV2 TK (P04407 whole entry): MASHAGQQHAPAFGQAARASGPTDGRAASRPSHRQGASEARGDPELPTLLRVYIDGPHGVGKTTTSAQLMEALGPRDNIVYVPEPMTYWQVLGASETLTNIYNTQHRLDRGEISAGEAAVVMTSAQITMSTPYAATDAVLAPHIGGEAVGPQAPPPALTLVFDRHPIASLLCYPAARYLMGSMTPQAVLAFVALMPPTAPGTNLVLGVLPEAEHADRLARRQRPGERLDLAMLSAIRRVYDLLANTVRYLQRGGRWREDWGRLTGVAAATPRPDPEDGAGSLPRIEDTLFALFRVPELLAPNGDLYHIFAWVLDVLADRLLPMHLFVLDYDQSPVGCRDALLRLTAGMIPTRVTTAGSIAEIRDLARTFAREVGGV
Chain of HSV1 TK (P0DTH5 whole entry): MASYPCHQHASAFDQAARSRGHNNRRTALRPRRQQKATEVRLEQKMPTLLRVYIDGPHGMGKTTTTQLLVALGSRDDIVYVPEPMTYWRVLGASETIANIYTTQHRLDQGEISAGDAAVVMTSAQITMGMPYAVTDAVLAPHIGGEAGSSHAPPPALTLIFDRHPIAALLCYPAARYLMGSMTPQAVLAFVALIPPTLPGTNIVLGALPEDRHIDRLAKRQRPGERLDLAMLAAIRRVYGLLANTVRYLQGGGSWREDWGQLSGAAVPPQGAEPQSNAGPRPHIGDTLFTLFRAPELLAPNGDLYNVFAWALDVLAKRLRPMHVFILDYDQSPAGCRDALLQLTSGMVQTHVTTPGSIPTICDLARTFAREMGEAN

Question: For `O=c1[nH]c(Nc2ccccc2)nc2c1ncn2CC(O)CO` (stereo not shown) [DHP-PG, 9-(2,3-Dihydroxypropyl)-N^2-phenylguanine], which C0 ([1]; in vivo, 100 mg/kg) is on record?
Answer: 115 µM

Question: What about the half-life ([1]; in vivo, 100 mg/kg) of the same compound?
Answer: 17.3 min

Question: What about the solubility [2] of the same compound?
Answer: 171 µM (≈ 51.4 µg/mL)

Question: And the “# ganglia reactivated/# explanted, HSV1 strain McKrae” value (HSV1, strain McKrae)?
Answer: 4/4

Question: And the logP (physchem)?
Answer: 0.398

Question: With `O=c1[nH]c(Nc2ccccc2)nc2c1ncn2CCO` [HE-PG, 9-(2-Hydroxyethyl)-N^2-phenylguanine] as the compound, how does the Plasma half-life ([3]; mice, i.v., in 90% DMSO/H2O) read?
Answer: 15 min

Question: And the “Volume of Distribution” value ([3]; mice, i.v., in 90% DMSO/H2O)?
Answer: 3.3 L/kg

Question: And the Vd/F [3, 7]?
Answer: 4.3 L/kg

Question: And the half-life [3, 8]?
Answer: 19 min

Question: And the C0 ([1]; in vivo, 100 mg/kg)?
Answer: 100 µM

Question: What about the half-life ([1]; plasma, mice, i.p. 100 mg/Kg, 90% DMSO, read-out: Plasma t1/2) of the same compound?
Answer: 21 min

Question: And the solubility [2]?
Answer: 156 µM (≈ 42.4 µg/mL)

Question: What about the “# ganglia reactivated/# explanted, HSV1 strain McKrae” value (HSV1, strain McKrae) of the same compound?
Answer: 4/4

Question: And the logP (physchem)?
Answer: 0.833

Question: For `O=c1[nH]c(Nc2ccccc2)nc2c1ncn2CCCCO` [HB-PG, 9-(4-Hydroxybutyl)-N^2-phenylguanine], which Vd/F [3, 7] is on record?
Answer: 12.7 L/kg

Question: And the half-life [3, 8]?
Answer: 85 min

Question: What about the half-life ([3]; mouse, ip, mice, in corn oil) of the same compound?
Answer: 55 min

Question: And the C0 ([1]; in vivo, 100 mg/kg)?
Answer: 30.5 µM

Question: What about the IC50 (HSV2 TK) of the same compound?
Answer: 2200 nM

Question: What about the “Viral DNA” value (HSV1 [4]) of the same compound?
Answer: < 1 × 10^2 copies

Question: What about the solubility [2] of the same compound?
Answer: 56 µM (≈ 16.8 µg/mL)

Question: And the “# ganglia reactivated/# explanted, HSV1 strain McKrae” value (HSV1, strain McKrae)?
Answer: 2/4

Question: What about the logP (physchem) of the same compound?
Answer: 1.26

Question: What about the “Infectious Virus, Ganglion” value (HSV1 [5]; not stressed) of the same compound?
Answer: 0/8

Question: And the “Infectious Virus, Ocular Surface” value (HSV1 [5]; not stressed)?
Answer: 0/9

Question: What about the “Infectious Virus, Ganglion” value (HSV1 [5]; [9]) of the same compound?
Answer: 7/18

Question: And the “Infectious Virus, Ocular Surface” value (HSV1 [5]; [9])?
Answer: 3/20

Question: And the “P, difference in frequency of virus in samples from HBPG-treated compared to placebo-treated animals” value (HSV1 [5]; vs placebo)?
Answer: < 0.05

Question: For `C=CCn1cnc2c(=O)[nH]c(Nc3ccccc3)nc21` [CH2 CHCH2], which solubility [2] is on record?
Answer: 8.1 µM (≈ 2.17 µg/mL)

Question: What about the logP (physchem) of the same compound?
Answer: 1.75

Question: Which results are given for `CCCCCCCCCCCCNc1nc2nc[nH]c2c(=O)[nH]1` [C12 G, N^2 -(n-Dodecyl)guanine]?
Answer: Ki [6]: 3200 nM; Mode of inhibition of VZV TK [6]: Competitive inhibitor

Question: With `O=C(O)Cn1cnc2c(=O)[nH]c(Nc3ccccc3)nc21` [PG-AA, (N^2 -Phenylguan-9-yl)acetic acid] as the compound, how does the Vd/F [3, 7] read?
Answer: 1.7 L/kg

Question: And the half-life [3, 8]?
Answer: 33 min

Question: And the C0 ([1]; in vivo, 100 mg/kg)?
Answer: 246 µM

Question: And the half-life ([1]; in vivo, 100 mg/kg)?
Answer: 26.6 min

Question: And the “# ganglia reactivated/# explanted, HSV1 strain McKrae” value (HSV1, strain McKrae)?
Answer: 4/4

Question: With `O=c1[nH]c(Nc2cccc(C(F)(F)F)c2)nc2nc[nH]c12` [m-CF3 PG, N^2-(m-[trifluoromethyl]phenyl)guanine, reference compound] as the compound, how does the Plasma half-life ([3]; mice, i.v., in saline, pH 11.3) read?
Answer: 25 min

Question: And the “Volume of Distribution” value ([3]; mice, i.v., in saline, pH 11.3)?
Answer: 3.0 L/kg

Question: And the half-life [3, 10]?
Answer: 140 min

Question: And the C0 ([1]; in vivo, 100 mg/kg, pH 11.4)?
Answer: 10.2 µM

Question: And the “# ganglia reactivated/# explanted, HSV1 strain KOS” value (HSV1, strain KOS)?
Answer: 1/20

Question: And the “# ganglia reactivated/# explanted, HSV1 strain McKrae” value (HSV1, strain McKrae)?
Answer: 0/4

Question: With `O=c1[nH]c(Nc2ccccc2)nc2c1ncn2[C@H]1C[C@H](O)[C@@H](CO)O1` [PhdG, 9-(2-Deoxyribofuranosyl)-N^2-phenylguanine] as the compound, how does the Vd ([3]; mouse, in vivo, iv, mice, i.v., in saline, pH 11.3, read-out: Volume of Distribution) read?
Answer: 0.4 L/kg

Question: And the half-life [3, 10]?
Answer: 60 min

Question: What about the half-life ([3]; mouse, iv, pH 11.3, mice, in saline, pH 11.3) of the same compound?
Answer: 7.5 min

Question: And the C0 ([1]; in vivo, 100 mg/kg, pH 11.4)?
Answer: 11.7 µM

Question: And the half-life ([1]; in vivo, 100 mg/kg, pH 11.4)?
Answer: 60 min

Question: What about the “# ganglia reactivated/# explanted, HSV1 strain KOS” value (HSV1, strain KOS) of the same compound?
Answer: 3/20

Question: What about the “# ganglia reactivated/# explanted, HSV1 strain McKrae” value (HSV1, strain McKrae) of the same compound?
Answer: 1/4

Question: For `CCCCCCCCCCCCCCNc1nc2[nH]cnc2c(=O)[nH]1` [C14 G], which IC50 [6] is on record?
Answer: 69000 nM

Question: With `O=c1[nH]c(Nc2ccccc2)nc2c1ncn2CC(O)CSCCO` (stereo not shown) [CH2 CHCH2SCH2 CH2 OH] as the compound, how does the IC50 (HSV2 TK; read-out: IC50 HSV2 TK) read?
Answer: 1560 nM

Question: What about the solubility [2] of the same compound?
Answer: 29.8 µM (≈ 10.8 µg/mL)

Question: What about the logP (physchem) of the same compound?
Answer: 0.826

Question: With `O=c1[nH]c(Nc2ccccc2)nc2c1ncn2[C@H]1C[C@H](O)[C@@H](CO)O1` [drawing 15] as the compound, how does the IC50 (HSV2 TK) read?
Answer: 700 nM

Question: And the solubility [2]?
Answer: 81 µM (≈ 27.8 µg/mL)

Question: What about the logP (physchem) of the same compound?
Answer: 0.398

Question: With `Oc1[nH]c(Nc2ccccc2)nc2ncnc1-2` [H] as the compound, how does the IC50 (HSV2 TK) read?
Answer: 1600 nM

Question: For `O=c1[nH]c(Nc2ccccc2)nc2c1ncn2COC(CO)CO` [CH2OCH(CH2 OH)2], which IC50 (HSV1 TK) is on record?
Answer: 500 nM

Question: And the solubility [2]?
Answer: 113 µM (≈ 37.4 µg/mL)

Question: And the logP (physchem)?
Answer: 0

Question: For `CCCNc1nc2c(ncn2[C@H]2C[C@H](O)[C@@H](CO)O2)c(=O)[nH]1` [PrdG, 9-(2-deoxyribofuranosyl)-N^2-n-propylguanine], which IC50 [6] is on record?
Answer: 20000 nM

Question: And the Ki [6]?
Answer: 13600 nM

Question: What about the “Mode of inhibition of VZV TK” value [6] of the same compound?
Answer: Competitive inhibitor
